Test results taken from patent US6737383B1, “Herbicidal oxadiazolidines” (priority 1999, dated 2004).

How the values were obtained:
pigweed = assay: Test B pre/postemergence pigweed; assay type: in vivo, Amaranthus retroflexus
Procedure, shortened: (§1)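 Herbicidal effect was estimated by eye on a ten-point control scale after plants spent twelve to sixteen days in a greenhouse following soil or foliar treatment. Foliar sprays targeted plants at one to four leaves; all doses were formulated in a non-phytotoxic solvent with surfactant.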

sugar beet = assay: Test B pre/postemergence sugar beet; assay type: in vivo, Beta vulgaris
Procedure, shortened: as §1

wild oat = assay: Test B pre/postemergence wild oat; assay type: in vivo, Avena fatua
Procedure, shortened: as §1

rape = assay: Test B pre/postemergence rape; assay type: in vivo, Brassica napus
Procedure, shortened: as §1

corn = assay: Test B pre/postemergence corn; assay type: in vivo, Zea mays
Procedure, shortened: as §1

rice = assay: Test B flood test rice; assay type: in vivo, Oryza sativa
Procedure, shortened: (§2)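 Plants were grown to the 2-leaf stage before treatment with test chemical, then held in a greenhouse for twelve to sixteen days. Injury was visually rated against untreated controls on a 0–10 scale, where 0 is no effect and 10 is complete control.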

duck salad = assay: Test B flood test duck salad; assay type: in vivo, Heteranthera limosa
Procedure, shortened: as §2

wheat = assay: Test B pre/postemergence wheat; assay type: in vivo, Triticum aestivum
Procedure, shortened: as §1

soybean = assay: Test B pre/postemergence soybean; assay type: in vivo, Glycine max
Procedure, shortened: as §1

morningglory = assay: Test B pre/postemergence morningglory; assay type: in vivo, Ipomoea hederacea
Procedure, shortened: as §1

bamyardgrass = assay: Test B flood test barnyardgrass; assay type: in vivo, Echinochloa crus-galli
Procedure, shortened: as §2

velvetleaf = assay: Test B pre/postemergence velvetleaf; assay type: in vivo, Abutilon theophrasti
Procedure, shortened: as §1

crabgrass = assay: Test B pre/postemergence crabgrass; assay type: in vivo, Digitaria sanguinalis
Procedure, shortened: as §1

giant foxtail = assay: Test B pre/postemergence giant foxtail; assay type: in vivo, Setaria faberii
Procedure, shortened: as §1

purple nutsedge = assay: Test B pre/postemergence purple nutsedge; assay type: in vivo, Cyperus rotundus
Procedure, shortened: as §1

cocklebur = assay: Test B pre/postemergence cocklebur; assay type: in vivo, Xanthium strumarium
Procedure, shortened: as §1

[1] = Postemergence, Rate 250 g/ha, scale 0 to 10
[2] = Postemergence, Rate 500 g/ha, scale of 0 to 10 where 0 is no effect and 10 is complete control
[3] = Preemergence, Rate 62 g/ha, scale 0 to 10 (0 no effect, 10 complete control)
[4] = Preemergence, Rate 125 g/ha, scale of 0 to 10 where 0 is no effect and 10 is complete control
[5] = Preemergence, Rate 250 g/ha, scale 0 to 10, 0 is no effect, 10 is complete control
[6] = Preemergence, Rate 500 g/ha, scale 0 to 10, 0 is no effect, 10 is complete control
[7] = Rate 125 g/ha, Postemergence, scale 0 to 10, 0 is no effect, 10 is complete control
[8] = Rate 62 g/ha, Postemergence, scale of 0 to 10 where 0 is no effect and 10 is complete control
[9] = Postemergence block (flood test species), Rate 250 g/ha, scale 0 to 10
[10] = Postemergence section (flood test species), Rate 500 g/ha, scale of 0 to 10 where 0 is no effect and 10 is complete control
[11] = Rate 125 g/ha, Postemergence section (flood test species), scale 0 to 10, 0 is no effect, 10 is complete control
[12] = Rate 62 g/ha, Postemergence (flood test species), scale of 0 to 10 where 0 is no effect and 10 is complete control

CC(C)N(C(=O)n1oc(=O)n(CC#N)c1=O)c1ccc(F)cc1F [Compound 431]
Redroot pigweed plant response rating (pigweed; [1]): 0
Redroot pigweed plant response rating (pigweed; [2]): 0
Plant response rating, Redroot pigweed (pigweed; [3]): 0
Plant response rating, Redroot pigweed (pigweed; [4]): 0
Redroot pigweed plant response rating (pigweed; [5]): 0
Redroot pigweed plant response rating (pigweed; [6]): 0
Redroot pigweed plant response rating (pigweed; [7]): 0
Sugarbeets plant response rating (sugar beet; [1]): 0
Sugarbeets plant response rating (sugar beet; [2]): 0
Plant response rating, Sugarbeets (sugar beet; [3]): 0
Plant response rating, Sugarbeets (sugar beet; [4]): 0
Sugarbeets plant response rating (sugar beet; [5]): 0
Sugarbeets plant response rating (sugar beet; [6]): 0
Sugarbeets plant response rating (sugar beet; [7]): 0
Wild oats plant response rating (wild oat; [1]): 0
Wild oats plant response rating (wild oat; [2]): 0
Plant response rating, Wild oats (wild oat; [3]): 0
Plant response rating, Wild oats (wild oat; [4]): 0
Wild oats plant response rating (wild oat; [5]): 2
Wild oats plant response rating (wild oat; [6]): 2
Wild oats plant response rating (wild oat; [7]): 0
Rape plant response rating (rape; [1]): 0
Rape plant response rating (rape; [2]): 0
Plant response rating, Rape (rape; [3]): 0
Plant response rating, Rape (rape; [4]): 0
Rape plant response rating (rape; [5]): 0
Rape plant response rating (rape; [6]): 3
Rape plant response rating (rape; [7]): 0
Corn plant response rating (corn; [1]): 0
Corn plant response rating (corn; [2]): 0
Plant response rating, Corn (corn; [3]): 0
Plant response rating, Corn (corn; [4]): 0
Corn plant response rating (corn; [5]): 0
Corn plant response rating (corn; [6]): 0
Corn plant response rating (corn; [8]): 0
Corn plant response rating (corn; [7]): 0
Rice plant response rating (rice; [9]): 0
Rice plant response rating (rice; [10]): 0
Rice plant response rating (rice; [11]): 0
Ducksalad plant response rating (duck salad; [9]): 0
Ducksalad plant response rating (duck salad; [10]): 0
Ducksalad plant response rating (duck salad; [12]): 0
Ducksalad plant response rating (duck salad; [11]): 0
Wheat plant response rating (wheat; [1]): 0
Wheat plant response rating (wheat; [2]): 0
Plant response rating, Wheat (wheat; [3]): 0
Plant response rating, Wheat (wheat; [4]): 0
Wheat plant response rating (wheat; [5]): 0
Wheat plant response rating (wheat; [6]): 0
Wheat plant response rating (wheat; [7]): 0
Soybean plant response rating (soybean; [1]): 1
Soybean plant response rating (soybean; [2]): 2
Plant response rating, Soybean (soybean; [3]): 0
Plant response rating, Soybean (soybean; [4]): 0
Soybean plant response rating (soybean; [5]): 0
Soybean plant response rating (soybean; [6]): 0
Soybean plant response rating (soybean; [7]): 1
Morningglory plant response rating (morningglory; [1]): 1
Morningglory plant response rating (morningglory; [2]): 2
Plant response rating, Morningglory (morningglory; [3]): 0
Plant response rating, Morningglory (morningglory; [4]): 0
Morningglory plant response rating (morningglory; [5]): 0
Morningglory plant response rating (morningglory; [6]): 0
Morningglory plant response rating (morningglory; [7]): 1
Barnyardgrass plant response rating (bamyardgrass; [9]): 0
Barnyardgrass plant response rating (bamyardgrass; [10]): 0
Barnyardgrass plant response rating (bamyardgrass; [12]): 0
Barnyardgrass plant response rating (bamyardgrass; [11]): 0
Velvetleaf plant response rating (velvetleaf; [1]): 0
Velvetleaf plant response rating (velvetleaf; [2]): 2
Plant response rating, Velvetleaf (velvetleaf; [3]): 0
Plant response rating, Velvetleaf (velvetleaf; [4]): 0
Velvetleaf plant response rating (velvetleaf; [5]): 0
Velvetleaf plant response rating (velvetleaf; [6]): 0
Velvetleaf plant response rating (velvetleaf; [7]): 0
Crabgrass plant response rating (crabgrass; [1]): 0
Crabgrass plant response rating (crabgrass; [2]): 2
Plant response rating, Crabgrass (crabgrass; [3]): 0
Crabgrass plant response rating (crabgrass; [6]): 3
Crabgrass plant response rating (crabgrass; [8]): 0
Crabgrass plant response rating (crabgrass; [7]): 0
Giant foxtail plant response rating (giant foxtail; [1]): 0
Giant foxtail plant response rating (giant foxtail; [2]): 6
Plant response rating, Giant foxtail (giant foxtail; [3]): 0
Plant response rating, Giant foxtail (giant foxtail; [4]): 0
Giant foxtail plant response rating (giant foxtail; [5]): 2
Giant foxtail plant response rating (giant foxtail; [6]): 3
Giant foxtail plant response rating (giant foxtail; [8]): 0
Giant foxtail plant response rating (giant foxtail; [7]): 0
Nutsedge plant response rating (purple nutsedge; [1]): 0
Nutsedge plant response rating (purple nutsedge; [2]): 0
Plant response rating, Nutsedge (purple nutsedge; [3]): 0
Plant response rating, Nutsedge (purple nutsedge; [4]): 0
Nutsedge plant response rating (purple nutsedge; [5]): 0
Nutsedge plant response rating (purple nutsedge; [6]): 0
Nutsedge plant response rating (purple nutsedge; [7]): 0
Cocklebur plant response rating (cocklebur; [1]): 0
Cocklebur plant response rating (cocklebur; [2]): 0
Plant response rating, Cocklebur (cocklebur; [3]): 0
Plant response rating, Cocklebur (cocklebur; [4]): 0
Cocklebur plant response rating (cocklebur; [5]): 0
Cocklebur plant response rating (cocklebur; [8]): 0
Cocklebur plant response rating (cocklebur; [7]): 0
